Measurements published in patent US8158587B2, “Compound having histone deacetylase-inhibiting activity, and pharmaceutical composition comprising the compound as an active ingredient” (Kyushu Institute of Technology, priority 2006, dated 2012).

Legend:
human HDAC1 = target: T1, human HDAC1 (Homo sapiens, UniProt Q13547); test: HDAC-inhibiting activity, coumarin-labeled acetylated histone peptide assay; assay type: biochemical; conditions: human HDAC1 from transfected 293T cells; 37° C., 30 minutes
T1 construct: made in house; host or cells: 293T cells (transient transfection, anti-FLAG immunoprecipitation, FLAG peptide elution)
Method: In carrying out HDAC-inhibiting activity measurements, HDAC solutions were prepared in the following manner. In each 100-mm dish, there were sowed 1×10^7 293T cells and, after 24 hours, they were transfected with a vector (5 μg) expressing human HDAC1 or HDAC4 or murine HDAC6 using the LipofectAmine 2000 reagent (Invitrogen). The human HDAC1 expression vector used was pcDNA3-HD1 (Yang, W. M., Yao, Y. L., Sun, J. M., Davie, J. R. & Seto, E. (1997) J. Biol. Chem. 272, 28001-28007), the human HDAC4 expression vector used was pcDNA3-HD4 (Fischle, W., Emiliani, S., Hendzel, M. J., Nagase, T., Nomura, N., Voelter, W. & Verdin, E. (1999) J. Biol. Chem. 274, 11713-11720), and the murine HDAC6 expression vector used was pcDNA3-mHDA2/HDAC6 (Verdel, A. & Khochbin, S. (1999) J. Biol. Chem. 274, 2440-2445).
After 24 hours of incubation, cells were recovered, washed with PBS, suspended in lysis buffer (50 mM Tris-HCl (pH 7.5), 120 mM NaCl, 5 mM EDTA, 0.5% Nonidet P-40), and sonicated. The supernatant was collected by centrifugation and then deprived of nonspecific proteins using Protein A/G plus agarose beads (Santa Cruz Biotechnologies, Inc.). Thereafter, anti-FLAG M2 antibody (Sigma-Aldrich Inc.) was added, and the reaction was allowed to proceed at 4° C. for 2 hours.
To this were added agarose beads, the reaction was allowed to proceed at 4° C. for 3 hours, and the agarose beads were washed three times with lysis buffer and then once with HD buffer (20 mM Tris-HCl (pH 8.0), 150 mM NaCl, 10% glycerol). The protein bound to the agarose beads was recovered by 1 hour of incubation with FLAG peptide (40 μg) (Sigma-Aldrich Inc.) in HD buffer (200 μl) at 4° C., and the liquid recovered was used, as a reactant solution, in the HDAC-inhibiting activity measurement described below.
HDAC-inhibiting activity evaluation in each in vitro system was made as follows. Each test compound was dissolved in DMSO, a stock solution with a concentration of 10 mM was thus prepared and this was used as an inhibitor stock solution. The assay was carried out by incubating the HDAC solution and a coumarin-labeled acetylated histone peptide solution in the presence of the test compound at 37° C. for 30 minutes (reaction volume 20 μl). To the reaction mixture was added 30 μl of trypsin, and the aminomethylcoumarin released by the enzymatic reaction was assayed using a fluorescent plate reader. In a negative control assay, no inhibitor was added to the reaction system and the same procedure was carried out.

[1] = tested on: brain tumor cell line SF-539; test: Human cancer cell line panel, proliferation (sulforhodamine B); assay type: cell-based; conditions: SF-539, 2 days of cultivation; read-out: 50% inhibitory concentration, proliferation
Text: (§1) The characteristics of the human cancer cell proliferation-inhibiting activity of the compounds of the present invention were examined by the “method of evaluating the mechanisms of action of compounds using a panel of human cancer cell lines” as proposed by Yamori et al. (cf. Gan to Kagaku Ryoho (Cancer and Chemotherapy) 29 Suppl. II (2002) and Cancer Chemother. Pharmacol. 52 Suppl. I, S74-79 (2003)).
(§2) This system includes […] (7 lung cancer, 6 stomach cancer, 5 colon cancer, 5 ovarian cancer, 6 brain tumor, […], 2 kidney cancer and 2 prostate cancer cell lines as well as one melanoma line) and the method comprises measuring the in vitro drug susceptibilities of those cancer cell lines and expressing the differences in drug susceptibility among the respective cancer cell lines as a fingerprint. […] By utilizing this property, it is possible to estimate the mechanisms of action of a compound. The above method is also characterized in that an anticancer substance showing new and unique mechanisms of action different from those of the existing anticancer agents can be selected.
(§3) Cancer cells of each cell line are sowed onto a 96-well plate, a sample solution is added on the next day and, after 2 days of cultivation, the cell proliferation is measured by colorimetry using sulforhodamine B. The deviations in effective concentration for the respective cancer cell lines from the mean effective drug concentration for the 39 cancer cell lines subjected to measurement are calculated and shown in the form a fingerprint.

[2] = tested on: brain tumor cell line SNB-75; test: as above; assay type: cell-based; conditions: SNB-75, 2 days of cultivation; read-out: 50% inhibitory concentration, proliferation
Text: as §1, §2, §3

[3] = tested on: breast cancer cell line BSY-1; test: as above; assay type: cell-based; conditions: BSY-1, 2 days of cultivation; read-out: 50% inhibitory concentration, proliferation
Text: as §1, §2, §3

[4] = tested on: colon cancer cell line HCT-116; test: as above; assay type: cell-based; conditions: HCT-116, 2 days of cultivation; read-out: 50% inhibitory concentration, proliferation
Text: as §1, §2, §3

[5] = tested on: kidney cancer cell line RXF-631L; test: as above; assay type: cell-based; conditions: 2 days of cultivation, read-out: 50% inhibitory concentration, proliferation
Text: as §1, §2, §3

[6] = tested on: lung cancer cell line NCI-H522; test: as above; assay type: cell-based; conditions: NCI-H522, 2 days of cultivation; read-out: 50% inhibitory concentration, proliferation
Text: as §1, §2, §3

T1 sequence (Q13547 whole entry): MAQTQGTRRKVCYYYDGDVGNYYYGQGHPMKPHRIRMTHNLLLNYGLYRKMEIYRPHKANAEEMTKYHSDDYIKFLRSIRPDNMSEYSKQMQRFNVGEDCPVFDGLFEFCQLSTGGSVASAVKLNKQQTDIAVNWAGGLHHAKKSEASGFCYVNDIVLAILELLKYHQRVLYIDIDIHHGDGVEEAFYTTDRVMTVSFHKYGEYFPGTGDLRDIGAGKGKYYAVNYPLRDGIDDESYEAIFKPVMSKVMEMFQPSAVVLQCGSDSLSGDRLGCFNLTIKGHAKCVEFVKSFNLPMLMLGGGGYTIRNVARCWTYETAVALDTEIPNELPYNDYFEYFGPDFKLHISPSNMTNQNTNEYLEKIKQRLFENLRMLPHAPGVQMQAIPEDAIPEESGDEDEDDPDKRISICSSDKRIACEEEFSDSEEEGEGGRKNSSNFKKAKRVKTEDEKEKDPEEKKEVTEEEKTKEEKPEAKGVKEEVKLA

SMILES	IC50 (human HDAC1) [nM]	IC50 [1] [nM]	IC50 [2] [nM]	IC50 [3] [nM]	IC50 [4] [nM]	IC50 [5] [nM]	IC50 [6] [nM]
CC1(C)NC(=O)[C@H](CCCCCSCc2ccncc2)NC(=O)[C@H]2CCCN2C(=O)[C@H](Cc2ccccc2)NC1=O [Ky-26, cyclo(-L-Am7(4-pyridylmethyl)-Aib-L-Phe-D-Pro-)]	50	≤ 100	≤ 100	≤ 100	≤ 100	≤ 100	≤ 10
CC(=O)CSCCCCC[C@@H]1NC(=O)[C@H]2CCCN2C(=O)[C@H](Cc2ccccc2)NC(=O)C(C)(C)NC1=O [Ky-72, cyclo(-L-Am7(acetonyl)-Aib-L-Phe-D-Pro-)]	–	≤ 100	≤ 100	≤ 100	≤ 10	≤ 100	≤ 10
